One sequence from PMC12084297, “Cytoplasmic connexin43-microtubule interactions promote glioblastoma stem-like cell maintenance and tumorigenicity” (Cell Death & Disease, 2025) can be followed below.

Series [1] relates to LN229/GSC tumor. Briefly: LN229/GSC tumor growth in mouse flank. It is filed as in vivo, mouse (BALB/c nude), human LN229/GSC cells. The source says:
Animal studies were approved by the Institutional Animal Care and Use Committee (IACUC) of Virginia Tech. Female athymic nude mice (Envigo) aged 6-8 weeks were used for the maintenance and propagation of PDX GBM22 cells. PDX GBM22 tumors were maintained by serial passage in nude mouse flanks as described previously. Briefly, tumors were harvested 14–18 days post-injection and glioblastoma cells were mechanically and enzymatically dissociated. Cells were passed through a 40 µm filter and maintained as gliospheres in DMEM/F-12 without phenol red and with L-glutamine (Thermo Fisher), supplemented with 10 ng/ml fibroblast growth factor (Thermo Fisher), 10 ng/ml epidermal growth factor (Thermo Fisher), Gibco B-27 Supplement without vitamin A (Thermo Fisher), amphotericin (Fisher), and gentamycin (Fisher). The medium was changed daily for 2 days. […] After 2 days, tumors were measured and mice were randomly separated into three groups (7 mice per group), and vehicle/control (PBS), JM2-scrambled or JM2 were administered at 300 μM intratumorally every day for 14 days. Tumors were then measured by blinded investigators and harvested for analysis (see section below). Tumor volume was calculated using the formula (length × width^2)/2. […] After 7 days, tumors were measured and mice were randomly separated into three groups; vehicle/control (PBS), JM2-scrambled, and JM2 (3 mice per group). […] Tumor sizes were measured by electronic calipers at different times by blinded investigators, and tumor volume was calculated using the formula (length × width^2)/2.
All quantification was performed on experiments repeated at least three times. […] Data were analyzed for significance using Student’s t test, one-way ANOVA with Tukey’s multiple comparisons test, and presented as mean ± SD. […] Statistical significance between experimental groups was determined using chi-square (χ²) tests within the ELDA framework. […]

The test system of series [2] is Cx43/α-tubulin interaction. Nature of the series: STORM localization, cross-pair correlation of Cx43/α-tubulin interaction in VTC-037 GSCs. It is filed as cell-based, human. The following applies: 50 μM, 24 h, n = 10. On the procedure:
Cells were washed once with warm PBS before fixing in 4% paraformaldehyde for 20 min at room temperature or ice-cold methanol for 5 min on ice, washed twice, and held in PBS at 4°C until immunostaining was conducted. Cells were permeabilized and blocked in 5% normal goat or donkey serum (Fisher Scientific) and 0.1% Triton X-100 in PBS for 2 h at room temperature. Primary antibodies rabbit anti-Cx43 (MilliporeSigma; C6219), mouse anti-pan Cadherin (MilliporeSigma; C1821), or mouse anti-α-tubulin (MilliporeSigma; T6199) were diluted in blocking buffer and labeling was performed overnight at 4 °C. […]
Stochastic optical reconstruction microscopy (STORM) acquisition was conducted with a Vutara 350 microscope (Bruker). […] To quantify the spatial relationship between target proteins localized by STORM, we utilized cross-pair correlation analysis. […]

Series [3] deals with VTC-037 GSCs. Briefly: Peptide uptake by confocal Z-stack with WGA, VTC-037 GSCs. Format: in vitro ADME, human. The following applies: 50 μM, 24 h, WGA membrane label.
Setting [4] is: LN229/GSC model, 300 µM intratumorally every other day, first 31 days, n = 3.

For the sequence VFFKGVKDRVKGRSD [JM2], in series [1] (300 μM intratumorally every other day, 24 days, after 33 days, n = 3 mice per group, compared to control or JM2-scrambled), the “Tumor growth, LN229/GSC model” value was “significant decrease in tumor growth”. Further, in series [1] (setting [4]), the “t(87) statistic, rate of tumor growth, JM2 vs Control” value is -5.081 and the “t(87) statistic, rate of tumor growth, JM2 vs JM2-scrambled” value was -3.873. The “Cx43-microtubule interaction (cross-pair correlation)” value in series [2] is on record as “impaired this interaction in situ”. In addition, the “Peptide enrichment within cells (Z-stack 3D projection)” value in series [3] is on record as “enrichment of JM2 (red) within cells”.
